# Laboratory results reported in US20250136689A1, “COMPOSITIONS FOR AND METHODS OF TREATING HEMATOLOGICAL CANCERS” (Duke University, priority 2022, published 2025).
# Like-named read-outs stand apart in the source and are kept apart here.
# Experiments:
# [1] = versus doxorubicin; cited from earlier work
# various cancer cells = various cancer cells in vitro; versus irinotecan; cited from earlier work
# c1498 AML = assay: Survival of C57BL/6 mice injected with c1498 AML cells; format: in vivo; details: combination: cytarabine 100 mg/kg i.p. every 12 hrs for 3 times, then Annexin V-Fc i.p. 4 times at 72 hours intervals
# Experimental: About 2×10^5 c1498 cells were injected into the tail vein of C57BL/6 mice. At 24 hrs after the injection, the mice were treated with 100 mg/kg cytarabine (injected i.p. every 12 hrs for 3 times). At 24 hrs after the last treatment, Annexin V-Fc was given i.p. 4 times at 72 hours intervals. The mice were then observed and sacrificed until they were moribund. Shown were the survival of different mice after they were treated with different antibody and drug combinations.
# Whether Annexin V-IgG1Fc fusion protein can enhance the treatment of c1498 AML in syngeneic mice (C57BL/6) in combination with cytarabine, a commonly used drug for AML treatment, was examined. […] Here, about 2×10^5 c1498 cells were injected into the tail vein of C57BL/6 mice. At 24 hrs after the injection, the mice were treated with 100 mg/kg cytarabine (injected i.p. every 12 hrs for 3 times). At 24 hrs after the last treatment, Annexin V-Fc was given i.p. 4 times at 72 hours intervals. The mice were then observed and sacrificed until they are moribund.
# KG1a human AML cell line = assay: Phagocytosis assay with THP1-derived macrophages; format: cell-based; details: untreated or doxorubicin-treated cells; 2 hrs incubation; versus isotype control (IgG1)
# Experimental: THP1 cells transduced with mCherry were differentiated into macrophages following previously established procedures. The macrophages were then incubated with non-treated or doxorubicin-treated KG1a human AML cell line transduced with EGFP in the presence of either isotype control (IgG1) or AnnexinV-IgG1Fc. After 2 hrs of incubation, the macrophages and the KG1a cells they have engulfed were counted.
# The ability of THP1-derived macrophages to phagocytose control or doxorubicin-treated […] cells was examined. […] Representative fluorescence images of phagocytosis assay. THP1 cells transduced with mCherry were differentiated into macrophages following previously established procedures. The cells were then incubated with non-treated or doxorubicin-treated KG1a human AML cell line transduced with EGFP in the presence of either isotype control (IgG1) or AnnexinV-IgG1Fc. After 2 hrs of incubation, the macrophages and the KG1a cells they have engulfed were counted (FIG. 2A). Quantitative estimates of phagocytosis of KG1a cells by THP1-derived macrophages, the phagocytic index was calculated as: (Average number of KG1a cells engulfed per macrophage)×(percentage of macrophages which have engulfed KG1a cells)×[…] (FIG. 2B).
# [2] = tested on: c1498 murine AML (Acute Myeloid Leukemia) cells; assay: Survival of FACS-sorted phosphatidylserine-positive c1498 AML cells; format: cell-based; details: Mus musculus, c1498 cells treated with cytarabine (1 μM) for 24 hrs, estimated from growth rates
# Excerpt: FIG. 1A-FIG. 1C show the survival of phosphatidylserine-expressing AML cells. […] The rectangles indicate the sorted cells. […] About 1000 each of the sorted cells were placed into multi-well plates. When the cells reached sufficient numbers, they were counted at different time points to measure their growth rates. The growth rates were then used to estimate the initial live cell numbers. The following formula was used to calculate the minimal initial live cell numbers: Minimal initial cell number=Total cell population/(growth rate*t)(days to reach the current cell number).
# To determine whether cells expression high-level of PS expression on the cell surface are destined to die, the viability of c1498 murine AML (Acute Myeloid Leukemia) cells treated with cytarabine (part of a classical chemotherapy regimen for human AML) was examined. Specifically, whether cell surface PS-expressing acute myelocytic leukemia (AML) cells survived was examined. FACS was used to identify and sort cells with high cell surface PS-expression and the ability to survive was measured. FIG. 1A-FIG. 1B). In FIG. 1A, FACS sorting of untreated c1498 cells (in DMEM with 8% FBS). The rectangles indicate the sorted cells. In FIG. 1B, FACS sorting of c1498 cells treated with cytarabine (1 μM) for 24 hrs). […] When the cells reached sufficient numbers, the cells were counted at different time points to measure growth rates. […]
molecule,measurement,setting,value
calicheamicin,potency relative to doxorubicin,[1],approximately 4000 times
"CCc1c2c(nc3ccc(O)cc13)-c1cc3c(c(=O)n1C2)COC(=O)[C@]3(O)CC [SN-38, 7-ethyl-10-hydroxy-camptothecin]",cytotoxic activity relative to irinotecan,various cancer cells,"up to 1,000 fold"
Annexin V-IgG1Fc fusion protein: Annexin V fused to the Fc domain of IgG1; SEQ ID NO:85 is the form with secretion signal,median survival of host mice,c1498 AML,> 62 days
same,phagocytosis of AML cells by THP1-derived macrophages (phagocytic index),KG1a human AML cell line,effectively boosted the phagocytosis
Nc1ccn([C@@H]2O[C@H](CO)[C@@H](O)[C@@H]2O)c(=O)n1 [cytarabine],viability at 1 µM,[2]; read-out: proportion of PS+7AAD+ c1498 cells that remained viable and could proliferate,~8%
same,viability at 1 µM,[2]; read-out: proportion of PS+7AAD- c1498 cells that remained viable and could proliferate,~25%
